Data set [1] addresses T1, Melanin-concentrating hormone receptor 1 (Homo sapiens, UniProt Q99705). As to the kind of experiment: Antagonist activity at human MCHR1 expressed in Jurkat cells co-expressing apoaequorin assessed as inhibition of MCH-induced calcium mobilization by aequorin bioluminescence assay. It counts as functional, cell-based. In general terms: A change in cytosolic calcium serves as a functional read-out for many receptors and channels.

The target in data set [2] is T1, Melanin-concentrating hormone receptor 1. As to the kind of experiment: Displacement of [125I]-MCH from MCHR1 after 2 hrs by beta scintillation counting. For orientation: Displacement assays read how much labelled ligand stays bound in the presence of the test substance.
Data set [3] deals with Rattus norvegicus. As to the kind of experiment: Antiobesity activity in ICV cannulated rat model assessed as reduction in MCH-induced food intake at 5 mg/kg, po administered 3 hrs before MCH challenge measured after 4 hrs post MCH challenge. It counts as functional, organism-based. On the set-up: dose 5 mg/kg.
The nature of data set [4]: Oral bioavailability in Beagle dog at 3 mg/kg. The data set is classed as ADME, organism-based, Canis lupus familiaris. The settings on record: in vivo.
Data set [5] has as its target Melanin-concentrating hormone receptor 2 (Homo sapiens) (UniProt Q969V1). Put plainly: Binding affinity to human MCHR2.
For data set [6], the system named is Rattus norvegicus. Put plainly: AUC in rat at 3 mg/kg, po. It counts as ADME, organism-based, Plasma. On the set-up: dose 3 mg/kg, route oral. The settings on record: in vivo.
Data set [7] can be described thus: Volume of distribution at steady state in Beagle dog at 0.5 mg/kg, iv. The data set is classed as ADME, organism-based, Canis lupus familiaris. On the set-up: dose 0.5 mg/kg, route intravenous. The settings on record: in vivo, read-out: Vdss.
Data set [8] is described as follows: Mean residence time in rhesus monkey at 3 mg/kg, po. The data set is classed as ADME, organism-based, Macaca mulatta. Details: dose 3 mg/kg, route oral. The settings on record: in vivo.
The subject of data set [9] is Rattus norvegicus. Put plainly: Antiobesity activity in ICV cannulated rat model assessed as reduction in MCH-induced food intake at 0.2 mg/kg, po administered 3 hrs before MCH challenge measured after 4 hrs post MCH challenge. It counts as functional. On the set-up: scale not given: the % may be the effect or the level left.
Data set [10] in a line: Clearance in rat hepatocytes assessed per 10^6 cells. It counts as ADME, cell-based, Liver, Hepatocyte.
The nature of data set [11]: AUC in Beagle dog at 3 mg/kg, po. Details: dose 3 mg/kg, route oral. The following applies: plasma. It counts as ADME, organism-based, Canis lupus familiaris.
A short description of data set [12]: Clearance in rhesus monkey hepatocytes assessed per 10^6 cells. It counts as ADME, cell-based, Macaca mulatta, Liver, Hepatocyte.
Data set [13] has as its system Rattus norvegicus. Put plainly: Antiobesity activity in ICV cannulated rat model assessed as reduction in MCH-induced food intake at 1 mg/kg, po administered 3 hrs before MCH challenge measured after 4 hrs post MCH challenge. The data set is classed as functional, organism-based. On the set-up: dose 1 mg/kg.
Data set [14] deals with Cynomolgus monkey. As to the kind of experiment: Toxicity in cynomolgus monkey at 10 mg/kg, po. The data set is classed as organism-based, Macaca fascicularis. On the set-up: dose 10 mg/kg, route oral. The settings on record: in vivo.
Data set [15] concerns Cynomolgus monkey. As to the kind of experiment: Antiobesity activity in cynomolgus monkey assessed as reduction of food intake at 10 mg/kg, po measured up to 8 days. It counts as functional, organism-based. Details: dose 10 mg/kg. The settings on record: Macaca fascicularis.
The test system of data set [16] is Rattus norvegicus. Put plainly: Oral bioavailability in rat at 3 mg/kg. The following applies: in vivo. It counts as ADME, organism-based.
Data set [17] is described as follows: Oral bioavailability in rhesus monkey at 3 mg/kg. The data set is classed as ADME, organism-based, Macaca mulatta. The following applies: in vivo.
Data set [18] is described as follows: Clearance in rhesus monkey at 0.5 mg/kg, iv. It counts as ADME, organism-based, Macaca mulatta. On the set-up: dose 0.5 mg/kg, route intravenous. The settings on record: in vivo.
Data set [19] in a line: Volume of distribution at steady state in rhesus monkey at 0.5 mg/kg, iv. On the set-up: dose 0.5 mg/kg, route intravenous. The data set is classed as ADME, organism-based, Macaca mulatta. The settings on record: in vivo, read-out: Vdss.
Data set [20] is described as follows: Clearance in Beagle dog at 0.5 mg/kg, iv. On the set-up: dose 0.5 mg/kg, route intravenous. The data set is classed as ADME, organism-based, Canis lupus familiaris. The following applies: in vivo.
Data set [21] is described as follows: Mean residence time in Beagle dog at 3 mg/kg, po. It counts as ADME, organism-based, Canis lupus familiaris. Details: dose 3 mg/kg, route oral. The following applies: in vivo.
Data set [22] is described as follows: Volume of distribution at steady state in rat at 0.5 mg/kg, iv. On the set-up: dose 0.5 mg/kg, route intravenous. The following applies: in vivo, read-out: Vdss. The data set is classed as ADME, organism-based.
Data set [23] is described as follows: AUC in rhesus monkey at 3 mg/kg, po. Details: dose 3 mg/kg, route oral. It counts as ADME, organism-based, Macaca mulatta. The following applies: plasma.
In data set [24] the test system is Cynomolgus monkey. Put plainly: Toxicity in cynomolgus monkey assessed as signs of sedation at 10 mg/kg, po. The following applies: in vivo. Details: dose 10 mg/kg, route oral. It counts as organism-based, Macaca fascicularis.
Data set [25] can be described thus: Clearance in Beagle dog hepatocytes assessed per 10^6 cells. The data set is classed as ADME, cell-based, Canis lupus familiaris, Liver, Hepatocyte.
The test system of data set [26] is Rattus norvegicus. As to the kind of experiment: Toxicity in ICV cannulated rat model at 0.2 to 5 mg/kg, po administered 3 hrs before MCH challenge measured after 4 hrs post MCH challenge. Details: dose 0.2-5 mg/kg, route oral. The settings on record: in vivo. It counts as organism-based.
Data set [27] is described as follows: Clearance in human hepatocytes assessed per 10^6 cells. The data set is classed as ADME, cell-based, Liver, Hepatocyte.
The nature of data set [28]: Mean residence time in rat at 3 mg/kg, po. It counts as ADME, organism-based. The settings on record: in vivo. Details: dose 3 mg/kg, route oral.
Data set [29] addresses Melanin-concentrating hormone receptor 1 (Rattus norvegicus, UniProt P97639). As to the kind of experiment: Antagonist activity at rat MCHR1 expressed in HEK293 cells by aequorin bioluminescence assay. It counts as functional, cell-based.
The target of data set [30] is Melanin-concentrating hormone receptor 1 (Macaca fascicularis, UniProt B6F061). Put plainly: Antagonist activity at cynomolgus monkey MCHR1. It counts as functional.
Chain of Melanin-concentrating hormone receptor 1 (Macaca fascicularis, UniProt B6F061) (B6F061 whole entry): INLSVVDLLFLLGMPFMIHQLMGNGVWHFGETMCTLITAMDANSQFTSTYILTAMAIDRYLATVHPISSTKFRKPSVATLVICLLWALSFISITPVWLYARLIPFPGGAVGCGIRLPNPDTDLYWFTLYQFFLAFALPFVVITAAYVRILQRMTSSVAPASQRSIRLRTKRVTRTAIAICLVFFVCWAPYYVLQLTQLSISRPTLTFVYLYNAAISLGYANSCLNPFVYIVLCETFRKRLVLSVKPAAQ
For data set [31], the system named is Rattus norvegicus. As to the kind of experiment: Toxicity in ICV cannulated rat model assessed as behavioural toxicity at 0.2 to 5 mg/kg, po administered 3 hrs before MCH challenge measured after 4 hrs post MCH challenge. The settings on record: in vivo. It counts as organism-based. Details: dose 0.2-5 mg/kg, route oral.
For data set [32], the system named is Rattus norvegicus. As to the kind of experiment: Clearance in rat at 0.5 mg/kg, iv. It counts as ADME, organism-based. The settings on record: in vivo. On the set-up: dose 0.5 mg/kg, route intravenous.

Structures are written as SMILES. Active and inactive are the calls of the source. No cut-off for these calls is given here.

In general, IC50 refers to the midpoint of a concentration-inhibition curve. Usually bioavailability stands for the share of a dose that reaches the circulation, judged against a reference dose that is usually intravenous. The AUC is the area under the concentration-time curve, a measure of exposure. Usually MRT stands for the average time that molecules of a dose stay in the body. What is called hepatocyte CLint is the rate of metabolic loss divided by the concentration. One may read the clearance as the volume of plasma or blood freed of the substance per unit of time.

T1 sequence (Q99705 whole entry): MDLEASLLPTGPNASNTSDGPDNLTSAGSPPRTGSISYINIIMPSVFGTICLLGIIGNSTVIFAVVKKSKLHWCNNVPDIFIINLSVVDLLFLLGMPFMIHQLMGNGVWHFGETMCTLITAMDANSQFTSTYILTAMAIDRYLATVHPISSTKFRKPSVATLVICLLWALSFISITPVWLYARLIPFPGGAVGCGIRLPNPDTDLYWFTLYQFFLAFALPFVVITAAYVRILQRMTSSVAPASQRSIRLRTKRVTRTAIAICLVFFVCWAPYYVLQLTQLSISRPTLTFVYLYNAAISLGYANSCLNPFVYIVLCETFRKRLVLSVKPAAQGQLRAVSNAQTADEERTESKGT
Chain of Melanin-concentrating hormone receptor 1 (Rattus norvegicus, UniProt P97639) (P97639 whole entry): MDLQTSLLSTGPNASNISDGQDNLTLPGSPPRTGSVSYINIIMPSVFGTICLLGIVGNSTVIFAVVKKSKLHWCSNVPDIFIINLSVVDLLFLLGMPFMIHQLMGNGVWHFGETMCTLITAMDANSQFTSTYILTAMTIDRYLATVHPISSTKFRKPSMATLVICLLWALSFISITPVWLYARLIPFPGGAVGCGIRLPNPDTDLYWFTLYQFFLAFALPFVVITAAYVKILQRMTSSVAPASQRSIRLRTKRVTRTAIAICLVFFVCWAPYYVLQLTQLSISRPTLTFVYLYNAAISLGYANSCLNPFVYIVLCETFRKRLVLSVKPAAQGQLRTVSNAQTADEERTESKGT
Chain of Melanin-concentrating hormone receptor 2 (Homo sapiens) (Q969V1 whole entry): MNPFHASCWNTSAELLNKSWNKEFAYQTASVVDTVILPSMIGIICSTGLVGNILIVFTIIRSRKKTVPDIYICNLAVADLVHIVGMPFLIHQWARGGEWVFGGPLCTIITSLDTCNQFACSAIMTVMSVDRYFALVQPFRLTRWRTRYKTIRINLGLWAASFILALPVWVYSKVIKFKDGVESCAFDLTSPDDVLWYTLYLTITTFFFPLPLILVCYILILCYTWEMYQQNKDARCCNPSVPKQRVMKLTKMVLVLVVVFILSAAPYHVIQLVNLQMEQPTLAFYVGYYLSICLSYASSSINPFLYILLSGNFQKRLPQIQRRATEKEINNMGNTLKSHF

Regarding `C[C@@H]1c2c([nH]c3ccc(C(F)(F)F)cc23)C[C@@H]2CCN(CCN3CCOCC3)C[C@H]21`, the IC50 amounted to 1000 nM in data set [1] and 750 nM in data set [2].

On to `CC1c2c([nH]c3cccc(Cl)c23)CC2CCN(C)CC21` (racemic), for which, in data set [1], the IC50 came out at 700 nM.

On to `CC1c2c([nH]c3cc(Cl)c(Cl)cc23)CC2CCN(C)CC21` (racemic), for which the IC50 in [1] turned out to be 50 nM.

Turning to `CC1c2c([nH]c3ccc(C(F)(F)F)cc23)CC2CCN(CCc3ccccc3)CC21` (racemic), in data set [1], the IC50 was 180 nM.

Take `CC1c2c([nH]c3ccc(C(F)(F)F)cc23)CC2CCN(CC3CCCCO3)CC21` (racemic): the IC50 in [1] came to 180 nM.

For the compound `COc1ccc2[nH]c3c(c2c1)C(C)C1CN(C)CCC1C3` (racemic), the IC50 in data set [1] is 400 nM.

As to `C[C@H]1c2c([nH]c3ccc(C(F)(F)F)cc23)C[C@H]2CCN(CCCCC3CCOCC3)C[C@@H]21`, the 50% inhibitory concentration (IC50) was determined as 50 nM in data set [1] and 4.4 nM in data set [2].

`CC1c2c([nH]c3c(Cl)cccc23)CC2CCN(C)CC21` (racemic): in data set [1], the IC50 is 1000 nM.

For the compound `CC1c2c([nH]c3ccc(C(F)(F)F)cc23)CC2CCN(C(=O)C3CCOC3)CC21` (racemic), the IC50 in [1] is greater than 20000 nM.

Turning to `C[C@H]1c2c([nH]c3ccc(C(F)(F)F)cc23)C[C@H]2CCN(CCN3CCCCC3)C[C@@H]21`, the IC50 in data set [1] amounted to 100 nM; in [2] it was 40 nM.

For `C[C@H]1c2c([nH]c3ccc(C(F)(F)F)cc23)C[C@H]2CCN(CCN3CCOCC3=O)C[C@@H]21`, the IC50 in [1] and in data set [2] was 7 nM throughout.

As for `CC1c2c([nH]c3ccc(C(F)(F)F)cc23)CC2CCN(Cc3ccccc3)CC21` (racemic), the IC50 in [1] turned out to be 580 nM.

Regarding `C[C@H]1c2c([nH]c3ccc(C(F)(F)F)cc23)C[C@H]2CCN(CCCC3CCOCC3)C[C@@H]21`, the result in the data set with Rattus norvegicus [3], in the data set with Rattus norvegicus [13] and in the data set on Cynomolgus monkey [15] was Active. Moreover, the bioavailability came out at 33% in data set [4] and 70% in data set [17]. In [5], the outcome was inactive. For the same compound, the AUC in the data set on Rattus norvegicus [6] is 4078 ng·h/mL; in [11] it was 268 ng·h/mL; in [23], 907 ng·h/mL. In addition, the Vd in [7] turned out to be 27 L/kg; in data set [19], 18 L/kg; in [22] it was 16 L/kg. Also, the results for the MRT in data set [8], in data set [21] and in [28] were 10 h, 2.5 h and 28 h, respectively. Moreover, the Activity in the data set with Rattus norvegicus [9] is 50%; in the data set with Cynomolgus monkey [14], “Non-toxic”; with Cynomolgus monkey [24], “Non-toxic”; in the data set with Rattus norvegicus [26], “Non-toxic”; in the data set on Rattus norvegicus [31], “Non-toxic”. The hepatocyte CLint in data set [10] was less than 0.3 µL/min/1e6 cells; in [12], 4.9 µL/min/1e6 cells; in data set [25], 8 µL/min/1e6 cells; in data set [27] it was less than 0.3 µL/min/1e6 cells. In addition, the IC50 in data set [1] was determined as 6 nM; in [29], 4 nM; in data set [2] it was 0.5 nM; in data set [30] it was 4 nM. The compound also gave a F with Rattus norvegicus [16] of 81%. Moreover, the clearance in [18] was 65 mL/min/kg; in data set [20], 100 mL/min/kg. This compound also showed a CL in the data set with Rattus norvegicus [32] of 3.3 mL/min/kg.

Turning to `C[C@H]1c2c([nH]c3ccc(C(F)(F)F)cc23)C[C@H]2CCN(CCN3CCOCC3)C[C@@H]21`, the IC50 in [1] is 20 nM; in [2] it was 3 nM.

As for `CC1c2c([nH]c3ccc(Cl)cc23)CC2CCN(C)CC21` (racemic), the IC50 in data set [1] was 100 nM.

`CC1c2c([nH]c3ccc(C(F)(F)F)cc23)CC2CCN(CCN3CCOCC3)CC21` (racemic): in data set [1], the IC50 was 20 nM.

Take `C[C@H]1c2c([nH]c3ccc(C(F)(F)F)cc23)C[C@H]2CCN(CCC3CCOCC3)C[C@@H]21`: the figures for the IC50 in data set [1] and in [2] were 6 nM and 0.9 nM, respectively.

Turning to `Cc1ccc2[nH]c3c(c2c1)C(C)C1CN(C)CCC1C3` (racemic), the IC50 in data set [1] was determined as 200 nM.

As for `CC1c2c([nH]c3ccccc23)CC2CCN(C)CC21` (racemic), in data set [1], the IC50 is 1000 nM.

As to `CC1c2c([nH]c3ccc(C(F)(F)F)cc23)CC2CCN(C(=O)c3ccccc3)CC21` (racemic), the half-maximal inhibitory concentration (IC50) in data set [1] was greater than 20000 nM.

Turning to `CC1c2c([nH]c3ccc(C(F)(F)F)cc23)CC2CCN(C)CC21` (racemic), the IC50 in data set [1] is 100 nM.

For the compound `CC1c2c([nH]c3cc(C(F)(F)F)ccc23)CC2CCN(C)CC21` (racemic), the IC50 in data set [1] came out at 200 nM.

The values are drawn from ChEMBL document CHEMBL1921706, “Discovery of a novel series of melanin-concentrating hormone receptor 1 antagonists for the treatment of obesity” (Bioorg Med Chem Lett, 2011).
